Data on 10 compounds can be found in ChEMBL document CHEMBL1123964, “Potent, long-acting luteinizing hormone-releasing hormone antagonists containing new synthetic amino acids: N,N'-dialkyl-D-homoarginines” (J Med Chem, 1988).

For this experiment, the target named is T1, Gonadotropin-releasing hormone receptor (Rattus norvegicus) (UniProt P30969).
T1 sequence (whole entry): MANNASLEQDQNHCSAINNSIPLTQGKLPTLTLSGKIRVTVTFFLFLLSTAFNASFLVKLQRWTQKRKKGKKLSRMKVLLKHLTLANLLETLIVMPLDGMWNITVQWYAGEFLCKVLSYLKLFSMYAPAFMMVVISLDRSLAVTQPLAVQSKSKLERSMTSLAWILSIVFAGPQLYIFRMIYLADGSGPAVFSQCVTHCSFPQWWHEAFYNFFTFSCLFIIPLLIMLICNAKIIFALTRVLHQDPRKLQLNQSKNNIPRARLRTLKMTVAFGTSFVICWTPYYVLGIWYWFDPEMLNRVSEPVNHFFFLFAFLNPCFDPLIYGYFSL
Kind of experiment: Antiovulatory activity on proestrus was measured by administering as a solution in 50% propylene glycol / 0.9% saline in rat. It is filed as functional.
Consider `CCNC(=NCCCC[C@H](NC(=O)[C@H](CO)NC(=O)[C@@H](Cc1c[nH]c2ccccc12)NC(=O)[C@@H](Cc1ccc(Cl)cc1)NC(=O)[C@@H](Cc1ccc2ccccc2c1)NC(C)=O)C(=O)N[C@H](Cc1ccc(O)cc1)C(=O)N[C@@H](CC(C)C)C(=O)N[C@@H](CCCN=C(N)N)C(=O)N1CCC[C@H]1C(=O)N[C@H](C)C(N)=O)NCC`, for which the ED50 (ug injection-1) came out at 1.7.

For the compound `CCCCCCNC(=NCCCC[C@@H](NC(=O)[C@H](Cc1ccc(O)cc1)NC(=O)[C@H](CCCN)NC(=O)[C@@H](Cc1c[nH]c2ccccc12)NC(=O)[C@@H](Cc1ccc(Cl)cc1)NC(=O)[C@@H](Cc1ccc(Cl)cc1)NC(C)=O)C(=O)N[C@@H](CC(C)C)C(=O)N[C@@H](CCCN=C(N)N)C(=O)N1CCC[C@H]1C(=O)N[C@H](C)C(N)=O)NCCCCCC`, the ED50 (ug injection-1) was more than 16.

`CCNC(=NCCCC[C@H](NC(=O)[C@H](CO)NC(=O)[C@@H](Cc1c[nH]c2ccccc12)NC(=O)[C@@H](Cc1ccc(Cl)cc1)NC(=O)[C@@H](Cc1ccc2ccccc2c1)NC(C)=O)C(=O)N[C@H](Cc1ccc(O)cc1)C(=O)N[C@@H](Cc1c[nH]c2ccccc12)C(=O)N[C@@H](CCCN=C(N)N)C(=O)N1CCC[C@H]1C(=O)N[C@H](C)C(N)=O)NCC` yielded an ED50 (ug injection-1) of 11.5.

The compound `CCCCCCNC(=NCCCC[C@@H](NC(=O)[C@H](Cc1ccc(O)cc1)NC(=O)[C@H](CO)NC(=O)[C@@H](Cc1c[nH]c2ccccc12)NC(=O)[C@@H](Cc1ccc(F)cc1)NC(=O)[C@@H](CO)NC(C)=O)C(=O)N[C@@H](CC(C)C)C(=O)N[C@@H](CCCN=C(N)N)C(=O)N1CCC[C@H]1C(=O)NCC(N)=O)NCCCCCC` registered an ED50 (ug injection-1) of 16.

On to `CC/N=C(\NCCCC[C@@H](NC(=O)[C@H](Cc1ccc(O)cc1)NC(=O)[C@H](CO)NC(=O)[C@@H](Cc1c[nH]c2ccccc12)NC(=O)[C@@H](Cc1ccc(Cl)cc1)NC(=O)[C@@H](Cc1ccc(Cl)cc1)NC(C)=O)C(=O)N[C@@H](CC(C)C)C(=O)N[C@@H](CCCN=C(N)N)C(=O)N1CCC[C@H]1C(=O)NCC(N)=O)NCCCN(C)C`, for which the ED50 (ug injection-1) is more than 2.

As for `CCNC(=NCCCC[C@@H](NC(=O)[C@H](Cc1ccc(O)cc1)NC(=O)[C@H](CO)NC(=O)[C@@H](Cc1c[nH]c2ccccc12)NC(=O)[C@@H](Cc1ccc(F)cc1)NC(=O)[C@@H](Cc1ccc2ccccc2c1)NC(C)=O)C(=O)N[C@@H](CC(C)C)C(=O)N[C@@H](CCCN=C(N)N)C(=O)N1CCC[C@H]1C(=O)N[C@H](C)C(N)=O)NCC`, the ED50 (ug injection-1) stood at 0.4.

In turn, `CCNC(=NCCCC[C@H](NC(=O)[C@H](CO)NC(=O)[C@@H](Cc1c[nH]c2ccccc12)NC(=O)[C@@H](Cc1ccc(Cl)cc1)NC(=O)[C@@H](Cc1ccc2ccccc2c1)NC(C)=O)C(=O)N[C@H](Cc1ccc2ccccc2c1)C(=O)N[C@@H](CC(C)C)C(=O)N[C@@H](CCCN=C(N)N)C(=O)N1CCC[C@H]1C(=O)N[C@H](C)C(N)=O)NCC` yielded an ED50 (ug injection-1) of 1.6.

`CCNC(=NCCCC[C@@H](NC(=O)[C@H](Cc1ccc(O)cc1)NC(=O)[C@H](CO)NC(=O)[C@@H](Cc1c[nH]c2ccccc12)NC(=O)[C@@H](Cc1ccc(F)cc1)NC(=O)[C@@H](Cc1ccc2ccccc2c1)NC(C)=O)C(=O)N[C@@H](CC(C)C)C(=O)N[C@@H](CCCN=C(N)N)C(=O)N1CCC[C@H]1C(=O)NCC(N)=O)NCCCN(C)C` yielded an ED50 (ug injection-1) of more than 2.

Turning to `CCNC(=NCCCC[C@@H](NC(=O)[C@H](Cc1ccc(O)cc1)NC(=O)[C@H](CO)NC(=O)[C@@H](Cc1ccncc1)NC(=O)[C@@H](Cc1ccc(Cl)cc1)NC(=O)[C@@H](Cc1ccc2ccccc2c1)NC(C)=O)C(=O)N[C@@H](CC(C)C)C(=O)N[C@@H](CCCN=C(N)N)C(=O)N1CCC[C@H]1C(=O)N[C@H](C)C(N)=O)NCC`, the ED50 (ug injection-1) was found to be 1.7.

Compound `CCNC(=NCCCC[C@@H](NC(=O)[C@H](Cc1ccc(O)cc1)NC(=O)[C@H](CO)NC(=O)[C@@H](Cc1ccc2ccccc2c1)NC(=O)[C@@H](Cc1ccc(Cl)cc1)NC(=O)[C@@H](Cc1c[nH]c2ccccc12)NC(C)=O)C(=O)N[C@@H](CC(C)C)C(=O)N[C@@H](CCCN=C(N)N)C(=O)N1CCC[C@H]1C(=O)N[C@H](C)C(N)=O)NCC` returned an ED50 (ug injection-1) of 5.5.
